From US9040545B2, “Heterocyclyl pyrazolopyrimidine analogues as selective JAK inhibitors” (Cellzome Limited, priority 2010, dated 2015)

target: T1, JAK3 (Homo sapiens, UniProt P52333); experiment: Kinobeads assay, JAK3; format: binding; details: mixed Molt4/Ramos lysate, read-out: Inhibition values (IC50) JAK3
T1 construct: endogenous in cells; host or cells: mixed Molt4/Ramos lysate (1:2)
T1 sequence (P52333 1-1124): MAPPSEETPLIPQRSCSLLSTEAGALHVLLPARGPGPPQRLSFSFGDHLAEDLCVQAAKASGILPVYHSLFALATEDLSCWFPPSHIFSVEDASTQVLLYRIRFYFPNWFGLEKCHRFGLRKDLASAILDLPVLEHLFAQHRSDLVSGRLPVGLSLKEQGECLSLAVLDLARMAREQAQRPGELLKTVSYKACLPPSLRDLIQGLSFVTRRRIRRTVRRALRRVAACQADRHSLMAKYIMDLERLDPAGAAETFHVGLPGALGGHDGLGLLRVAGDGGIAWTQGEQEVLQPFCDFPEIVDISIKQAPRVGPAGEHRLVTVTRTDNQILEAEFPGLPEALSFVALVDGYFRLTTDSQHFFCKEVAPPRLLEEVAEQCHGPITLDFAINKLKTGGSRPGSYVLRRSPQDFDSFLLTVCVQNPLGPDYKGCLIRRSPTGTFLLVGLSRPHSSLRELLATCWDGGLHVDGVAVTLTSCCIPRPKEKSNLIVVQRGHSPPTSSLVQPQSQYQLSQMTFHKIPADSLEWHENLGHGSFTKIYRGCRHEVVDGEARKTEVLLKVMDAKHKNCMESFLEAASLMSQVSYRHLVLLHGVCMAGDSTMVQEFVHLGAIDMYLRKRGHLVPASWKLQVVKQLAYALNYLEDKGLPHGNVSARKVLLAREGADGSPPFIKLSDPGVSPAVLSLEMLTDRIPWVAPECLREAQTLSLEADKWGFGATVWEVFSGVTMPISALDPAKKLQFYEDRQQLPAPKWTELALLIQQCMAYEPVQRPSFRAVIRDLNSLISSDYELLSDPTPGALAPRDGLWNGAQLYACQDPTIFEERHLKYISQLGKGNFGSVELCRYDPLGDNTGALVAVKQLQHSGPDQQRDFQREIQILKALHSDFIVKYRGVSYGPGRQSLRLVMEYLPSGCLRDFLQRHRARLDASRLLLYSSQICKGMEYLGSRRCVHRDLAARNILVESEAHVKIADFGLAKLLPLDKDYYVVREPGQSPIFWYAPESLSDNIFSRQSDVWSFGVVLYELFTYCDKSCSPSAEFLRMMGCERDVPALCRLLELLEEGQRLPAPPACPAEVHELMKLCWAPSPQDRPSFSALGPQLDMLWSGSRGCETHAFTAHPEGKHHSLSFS
Method: The compounds of the present invention as described in the previous examples were tested in a Kinobeads™ assay as described for ZAP-70 (WO-A 2007/137867). Briefly, test compounds (at various concentrations) and the affinity matrix with the immobilized aminopyrido-pyrimidine ligand 24 were added to cell lysate aliquots and allowed to bind to the proteins in the lysate sample. After the incubation time the beads with captured proteins were separated from the lysate. Bound proteins were then eluted and the presence of JAK2 and JAK3 was detected and quantified using specific antibodies in a dot blot procedure and the Odyssey infrared detection system. Dose response curves for individual kinases were generated and IC50 values calculated. Kinobeads™ assays for ZAP-70 (WO-A 2007/137867) and for kinase selectivity profiling (WO-A 2006/134056) have been previously described.
The affinity matrix was washed two times with 15 mL of 1×DP buffer containing 0.2% NP40 (IGEPAL® CA-630, Sigma, #I3021) and then resuspended in 1×DP buffer containing 0.2% NP40 (3% beads slurry).
5×DP buffer 250 mM Tris-HCl pH 7.4, 25% Glycerol, 7.5 mM MgCl2, 750 mM NaCl, 5 mM Na3VO4; filter the 5×DP buffer through a 0.22 μm filter and store in aliquots at −80° C. The 5×DP buffer is diluted with H2O to 1×DP buffer containing 1 mM DTT and 25 mM NaF.
Stock solutions of test compounds were prepared in DMSO. In a 96 well plate 30 μL solution of diluted test compounds at 5 mM in DMSO were prepared. Starting with this solution a 1:3 dilution series (9 steps) was prepared. For control experiments (no test compound) a buffer containing 2% DMSO was used.
Molt4 cells (ATCC catalogue number CRL-1582) and Ramos cells (ATCC catalogue number CRL-1596) were grown in 1 L Spinner flasks (Integra Biosciences, #182101) in suspension in RPMI 1640 medium (Invitrogen, #21875-034) supplemented with 10% Fetal Bovine Serum (Invitrogen) at a density between 0.15×106 and 1.2×10^6 cells/mL. Cells were harvested by centrifugation, washed once with 1×PBS buffer (Invitrogen, #14190-094) and cell pellets were frozen in liquid nitrogen and subsequently stored at −80° C. Cells were homogenized in a Potter S homogenizer in lysis buffer: 50 mM Tris-HCl, 0.8% NP40, 5% glycerol, 150 mM NaCl, 1.5 mM MgCl2, 25 mM NaF, 1 mM sodium vanadate, 1 mM DTT, pH 7.5. One complete EDTA-free tablet (protease inhibitor cocktail, Roche Diagnostics, 1873580) per 25 mL buffer was added. The material was dounced 10 times using a mechanized POTTER S, transferred to 50 mL falcon tubes, incubated for 30 minutes on ice and spun down for 10 minutes at 20,000 g at 4° C. (10,000 rpm in Sorvall SLA600, precooled). The supernatant was transferred to an ultracentrifuge (UZ)-polycarbonate tube (Beckmann, 355654) and spun for 1 hour at 100,000 g at 4° C. (33.500 rpm in Ti50.2, precooled). The supernatant was transferred again to a fresh 50 mL falcon tube, the protein concentration was determined by a Bradford assay (BioRad) and samples containing 50 mg of protein per aliquot were prepared. The samples were immediately used for experiments or frozen in liquid nitrogen and stored frozen at −80° C.
Cell lysate (approximately 50 mg protein per plate) was thawed in a water bath at room temperature and then stored on ice. To the thawed cell lysate 1×DP 0.8% NP40 buffer containing protease inhibitors (1 tablet for 25 mL buffer; EDTA-free protease inhibitor cocktail; Roche Diagnostics 1873580) was added in order to reach a final protein concentration of 10 mg/mL total protein. The diluted cell lysate was stored on ice. Mixed Molt4/Ramos lysate was prepared by combining one volume of Molt4 lysate and two volumes of Ramos lysate (ratio 1:2).
To a 96 well filter plate (Multiscreen HTS, BV Filter Plates, Millipore #MSBVN1250) were added per well: 100 μL affinity matrix (3% beads slurry), 3 μL of compound solution, and 50 μL of diluted lysate. […]

Row | Compound | IC50 [µM]
1 | CCOC(=O)C1CCCN(c2cccc(Cn3ncc4cnc(Nc5cnn(C)c5)nc43)c2)C1 (stereo not shown) [Example 13, Ethyl 1-(3-((6-((1-methyl-1H-pyrazol-4-yl)amino)-1H-pyrazolo[3,4-d]pyrimidin-1-yl)methyl)phenyl)piperidine-3-carboxylate] | 0.1 to 1
2 | Cn1cc(Nc2ncc3cnn(Cc4c(F)c(F)cc(C(=O)N5CCOCC5)c4F)c3n2)cn1 [Example 110, morpholino(2,4,5-trifluoro-3-((6-((1-methyl-1H-pyrazol-4-yl)amino)-1H-pyrazolo[3,4-d]pyrimidin-1-yl)methyl)phenyl)methanone] | < 0.1
3 | CN(C)CC(F)Cn1cc(Nc2ncc3cnn(Cc4cc(F)cc(N5CCOCC5=O)c4)c3n2)cn1 (stereo not shown) [Example 97, 4-(3-((6-((1-(3-(dimethylamino)-2-fluoropropyl)-1H-pyrazol-4-yl)amino)-1H-pyrazolo[3,4-d]pyrimidin-1-yl)methyl)-5-fluorophenyl)morpholin-3-one] | < 0.1
4 | Cn1cc(Nc2ncc3cnn(Cc4cccc(N5CCC(F)(F)CC5)c4)c3n2)cn1 [Example 19, 1-(3-(4,4-Difluoropiperidin-1-yl)benzyl)-N-(1-methyl-1H-pyrazol-4-yl)-1H-pyrazolo[3,4-d]pyrimidin-6-amine] | 0.1 to 1
5 | Cn1cc(Nc2ncc3cnn(Cc4cc(C(=O)N5CCOCC5)cc(F)c4F)c3n2)cn1 [Example 98, (3,4-difluoro-5-((6-((1-methyl-1H-pyrazol-4-yl)amino)-1H-pyrazolo[3,4-d]pyrimidin-1-yl)methyl)phenyl)(morpholino)methanone] | < 0.1
6 | Cn1cc(Nc2ncc3cnn(Cc4cccc(N5CCN(S(C)(=O)=O)CC5)c4)c3n2)cn1 [Example 100, N-(1-methyl-1H-pyrazol-4-yl)-1-(3-(4-(methylsulfonyl)piperazin-1-yl)benzyl)-1H-pyrazolo[3,4-d]pyrimidin-6-amine] | < 0.1
7 | CN(C)C(=O)CCn1cc(Nc2ncc3cnn(Cc4cccc(N5CCOCC5)c4)c3n2)cn1 [Example 16, N,N-Dimethyl-3-(4-((1-(3-morpholinobenzyl)-1H-pyrazolo[3,4-d]pyrimidin-6-yl)amino)-1H-pyrazol-1-yl)propanamide] | < 0.1
8 | Cn1cc(Nc2ncc3cnn(Cc4cc(N5CCOCC5)ccc4F)c3n2)cn1 [Example 15, 1-(2-Fluoro-5-morpholinobenzyl)-N-(1-methyl-1H-pyrazol-4-yl)-1H-pyrazolo[3,4-d]pyrimidin-6-amine] | 0.1 to 1

Other lines, results leading:

Row | IC50 [µM] | Compound
9 | < 0.1 | Cn1cc(Nc2ncc3cnn(Cc4cccc(C(=O)N5CCOCC5)c4)c3n2)cn1 [Example 6, (3-((6-((1-Methyl-1H-pyrazol-4-yl)amino)-1H-pyrazolo[3,4-d]pyrimidin-1-yl)methyl)phenyl)(morpholino)methanone]
10 | < 0.1 | Fc1cc(N2CCOCC2)c(F)c(Cn2ncc3cnc(Nc4cnn(CC5CCNC5)c4)nc32)c1F (stereo not shown) [Example 94, N-(1-(pyrrolidin-3-ylmethyl)-1H-pyrazol-4-yl)-1-(2,3,6-trifluoro-5-morpholinobenzyl)-1H-pyrazolo[3,4-d]pyrimidin-6-amine]
11 | < 0.1 | CN(C)CC(O)Cn1cc(Nc2ncc3cnn(Cc4cccc(N5CCOCC5)c4)c3n2)cn1 (stereo not shown) [Example 33, 1-(Dimethylamino)-3-(4-((1-(3-morpholinobenzyl)-1H-pyrazolo[3,4-d]pyrimidin-6-yl)amino)-1H-pyrazol-1-yl)propan-2-ol]
12 | < 0.1 | O=C1COCCN1c1cccc(Cn2ncc3cnc(Nc4cnn(CCO)c4)nc32)c1 [Example 29, 4-(3-((6-((1-(2-Hydroxyethyl)-1H-pyrazol-4-yl)amino)-1H-pyrazolo[3,4-d]pyrimidin-1-yl)methyl)phenyl)morpholin-3-one]
13 | < 0.1 | C[C@@H]1COCCN1c1cccc(Cn2ncc3cnc(Nc4cnn(C)c4)nc32)c1 [Example 113, (R)-N-(1-methyl-1H-pyrazol-4-yl)-1-(3-(3-methylmorpholino)benzyl)-1H-pyrazolo[3,4-d]pyrimidin-6-amine]
14 | < 0.1 | CNC(=O)CCn1cc(Nc2ncc3cnn(Cc4cccc(N5CCOCC5)c4)c3n2)cn1 [Example 24, N-Methyl-3-(4-((1-(3-morpholinobenzyl)-1H-pyrazolo[3,4-d]pyrimidin-6-yl)amino)-1H-pyrazol-1-yl)propanamide]
15 | < 0.1 | O=C1COCCN1c1cc(F)cc(Cn2ncc3cnc(Nc4cnn(CCS(=O)(=O)NC5CC5)c4)nc32)c1 [Example 106, N-cyclopropyl-2-(4-((1-(3-fluoro-5-(3-oxomorpholino)benzyl)-1H-pyrazolo[3,4-d]pyrimidin-6-yl)amino)-1H-pyrazol-1-yl)ethanesulfonamide]
16 | < 0.1 | Cn1cc(Nc2ncc3cnn(Cc4cccc(-c5cnn(CCO)c5)c4)c3n2)cn1 [Example 121, 2-(4-(3-((6-((1-methyl-1H-pyrazol-4-yl)amino)-1H-pyrazolo[3,4-d]pyrimidin-1-yl)methyl)phenyl)-1H-pyrazol-1-yl)ethanol]
17 | < 0.1 | Cn1cc(-c2cc(F)c(F)c(Cn3ncc4cnc(Nc5cnn(CCO)c5)nc43)c2)cn1 [Example 127, 2-(4-((1-(2,3-difluoro-5-(1-methyl-1H-pyrazol-4-yl)benzyl)-1H-pyrazolo[3,4-d]pyrimidin-6-yl)amino)-1H-pyrazol-1-yl)ethanol]
18 | < 0.1 | Cn1cc(Nc2ncc3cnn(Cc4c(F)ccc(N5CCOCC5)c4F)c3n2)cn1 [Example 38, 1-(2,6-Difluoro-3-morpholinobenzyl)-N-(1-methyl-1H-pyrazol-4-yl)-1H-pyrazolo[3,4-d]pyrimidin-6-amine]
19 | < 0.1 | CNCC1(Cn2cc(Nc3ncc4cnn(Cc5cccc(N6CCOCC6)c5)c4n3)cn2)COC1 [Example 41, N-(1-((3-((Methylamino)methyl)oxetan-3-yl)methyl)-1H-pyrazol-4-yl)-1-(3-morpholinobenzyl)-1H-pyrazolo[3,4-d]pyrimidin-6-amine]
